Consider 17 compounds from patent publication US10538491B2, “4,5-substituted picolinamide and picolinonitrile metabotropic glutamate receptor 2 negative allosteric modulators” (Vanderbilt University, priority 2015, dated 2020).

Like-named read-outs stand apart in the source and are kept apart here.

As usually defined, the IC50 is the concentration needed to halve the response being measured. A low value points to inhibition by little substance.

In assay [1] the test system is group II mGlu receptors (mGlu2 and mGlu3). The note with it: cited from earlier work.
The target in the next assay is rat mGlu2 (Rattus norvegicus (Rat), UniProt P31421). Put plainly: mGlu2 Ca2+ flux assay. The note with it: for IC50: Gα15 HEK293 cells stably expressing rat mGlu2, glutamate EC80, >10,000 = no plateau, >30,000 = no measurable activity; for remaining activity at 30 µM: read-out: rat mGlu2 Glu max. It counts as cell-based. The method in brief: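 Gα15 HEK293 cells stably expressing rat mGlu2, Fluo-4 loaded; compound added, then glutamate at EC20 after 2.3 min and EC80 afterward, calcium flux read as F/F0. Peak amplitude around EC80 addition normalized to glutamate max; IC50 by unconstrained 4-parameter fit, top concentration 30 μM.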
Chain of rat mGlu2 (P31421 19-872): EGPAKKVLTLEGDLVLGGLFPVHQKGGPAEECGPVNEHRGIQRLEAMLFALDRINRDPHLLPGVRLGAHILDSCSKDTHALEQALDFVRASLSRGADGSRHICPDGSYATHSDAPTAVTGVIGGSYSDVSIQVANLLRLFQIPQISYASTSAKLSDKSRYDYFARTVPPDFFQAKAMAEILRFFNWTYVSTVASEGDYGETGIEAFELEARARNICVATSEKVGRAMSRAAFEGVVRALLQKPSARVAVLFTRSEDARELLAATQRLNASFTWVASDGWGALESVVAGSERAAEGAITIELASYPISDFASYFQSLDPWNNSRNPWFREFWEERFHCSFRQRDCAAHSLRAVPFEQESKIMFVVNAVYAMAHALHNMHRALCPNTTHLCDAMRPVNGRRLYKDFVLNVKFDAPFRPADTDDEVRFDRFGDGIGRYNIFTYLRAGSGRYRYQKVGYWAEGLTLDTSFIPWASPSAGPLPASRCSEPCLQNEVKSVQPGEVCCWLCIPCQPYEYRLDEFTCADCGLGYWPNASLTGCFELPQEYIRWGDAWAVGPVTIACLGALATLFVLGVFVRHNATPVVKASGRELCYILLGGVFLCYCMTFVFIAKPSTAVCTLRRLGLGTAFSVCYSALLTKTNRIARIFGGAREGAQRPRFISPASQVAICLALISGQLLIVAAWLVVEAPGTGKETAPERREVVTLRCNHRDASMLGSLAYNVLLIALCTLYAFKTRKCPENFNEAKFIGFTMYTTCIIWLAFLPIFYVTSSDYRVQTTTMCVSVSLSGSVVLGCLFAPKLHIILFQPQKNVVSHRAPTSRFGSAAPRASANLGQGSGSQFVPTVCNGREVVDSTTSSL
For orientation: Calcium flux is commonly read through the fluorescence of an indicator in the cells.

The subject of assay [2] is central mGlu2 and mGlu3 receptors. The note with it: in vivo; cited from earlier work.
The test system of another assay is mice. The note with it: cited from earlier work.
For another assay, the system named is Helpless (H) mice. The note with it: cited from earlier work; for activity in the tail suspension test: Helpless (H) mice.
For a further assay, the system named is mouse. The note with it: mouse TST, normal animals; cited from earlier work.
The next assay relates to C57Bl6/J mice. The note with it: FST; cited from earlier work.
Another assay concerns rat. The note with it: rat FST, normal animals; cited from earlier work.
The subject of assay [3] is Aβ-induced neurodegeneration. The note with it: cited from earlier work.
In assay [4] the test system is social isolation reared mice. The note with it: cited from earlier work.
For assay [5] the following is noted: treatment for 7 days; cited from earlier work.
Assay [6] relates to olfactory bulbectomized rats. The note with it: repeated administration for 14 days; cited from earlier work.
The conditions of assay [7]: CFS model; cited from earlier work.
Setting [8] is: amplitude of response in the presence of 30 μM test compound as percentage of maximal response to glutamate.

As to `CCCCCCCOC(=O)[C@@]1(F)[C@@H]2C[C@@H](OCc3ccc(Cl)c(Cl)c3)[C@@](N)(C(=O)O)[C@@H]21` [BCI-838], in [1] (once-daily dosing of oral prodrug), the “duration of inhibition of group II mGlu receptors by brain concentration of active metabolite BCI-632” value was 22 h. The “learning and memory impairment” value in assay [1] (three months of treatment, Dutch APP transgenic mice) is “reversed Dutch APP transgene-associated learning and memory impairment”. Moreover, the “levels of monomeric and oAβ peptides in hippocampus and cortex” value in assay [1] (three months of treatment, two AD mouse models) was “decreased the levels of monomeric and oAβ peptides”. Besides, the anxiolytic effects entry in assay [1] (three months of treatment) was “anxiolytic effects”. Also, the “hippocampal progenitor cell proliferation” value in [1] (wild-type and Alzheimer's diseased mice, 3 months) was “stimulated hippocampal progenitor cell proliferation”.

`N#Cc1cc(COc2cnc(C(N)=O)cc2-c2ccc(F)cc2)ccc1F` [Compound 148, 5-((3-cyano-4-fluorobenzyl)oxy)-4-(4-fluorophenyl)picolinamide] came in with an IC50 against rat mGlu2 of 1.68 µM. Moreover, on rat mGlu2 (setting [8]), the remaining activity at 30 µM is 0.43%.

Take `N#Cc1cccc(COc2cnc(C(N)=O)cc2-c2ccc(F)cc2)c1F` [Compound 149, 5-((3-cyano-2-fluorobenzyl)oxy)-4-(4-fluorophenyl)picolinamide]: 0.254 µM corresponded to half-maximal inhibition on rat mGlu2 (IC50). Moreover, on rat mGlu2 (setting [8]), the remaining activity at 30 µM came out at 1.66%.

Regarding `N#Cc1ccccc1COc1cnc(C(N)=O)cc1-c1ccc(F)cc1` [Compound 150, 5-((2-cyanobenzyl)oxy)-4-(4-fluorophenyl)picolinamide], inhibition against rat mGlu2 was half-maximal at 0.098 µM (IC50). Besides, the remaining activity at 30 µM at rat mGlu2 (setting [8]) amounted to 1.14%.

On to `N#Cc1cncc(COc2cnc(C(N)=O)cc2-c2ccc(F)cc2)c1` [Compound 151], for which half-maximal inhibition on rat mGlu2 (IC50) required 0.683 µM. Also, the “rat mGlu2 Glu max” value at rat mGlu2 (setting [8]) is reported as 2.05%.

Turning to `N#Cc1cccc(OCCOc2cnc(C(N)=O)cc2-c2ccc(F)cc2)c1` [Compound 152, 5-(2-(3-cyanophenoxy)ethoxy)-4-(4-fluorophenyl)picolinamide], the IC50 on rat mGlu2 came to 1.22 µM. Moreover, on rat mGlu2 (setting [8]), the remaining activity at 30 µM was found to be 1.44%.

As for `N#Cc1cc(F)cc(OCCOc2cnc(C(N)=O)cc2-c2ccc(F)cc2)c1` [Compound 153, 5-(2-(3-cyano-5-fluorophenoxy)ethoxy)-4-(4-fluorophenyl)picolinamide], half-maximal inhibition against rat mGlu2 (IC50) was put at 1.37 µM. The remaining activity at 30 µM at rat mGlu2 (setting [8]) was 1.58%.

In the case of `N#Cc1cc(OCCOc2cnc(C(N)=O)cc2-c2ccc(F)cc2)ccc1F` [Compound 154, 5-(2-(3-cyano-4-fluorophenoxy)ethoxy)-4-(4-fluorophenyl)picolinamide], the midpoint of inhibition on rat mGlu2, the IC50, lay at 1.39 µM. For the same compound, the remaining activity at 30 µM on rat mGlu2 (setting [8]) was determined as 4.19%.

In the case of `N#Cc1cccc(OCCOc2cnc(C(N)=O)cc2-c2ccc(F)cc2)c1F` [Compound 155, 5-(2-(3-cyano-2-fluorophenoxy)ethoxy)-4-(4-fluorophenyl)picolinamide], on rat mGlu2, half-maximal inhibition (IC50) was put at 0.528 µM. The remaining activity at 30 µM on rat mGlu2 (setting [8]) came out at 1.07%.

The compound `N#Cc1ccc(F)c(OCCOc2cnc(C(N)=O)cc2-c2ccc(F)cc2)c1` [Compound 156, 5-(2-(5-cyano-2-fluorophenoxy)ethoxy)-4-(4-fluorophenyl)picolinamide] gave an IC50 on rat mGlu2 of 4.23 µM. In addition, the remaining activity at 30 µM at rat mGlu2 (setting [8]) is -21.7%.

In turn, `N#Cc1cncc(OCCOc2cnc(C(N)=O)cc2-c2ccc(F)cc2)c1` [Compound 157, 5-(2-((5-cyanopyridin-3-yl)oxy)ethoxy)-4-(4-fluorophenyl)picolinamide] registered an IC50 on rat mGlu2 of 0.691 µM. The remaining activity at 30 µM on rat mGlu2 (setting [8]) was found to be 4.33%.

For `N[C@](CC1c2ccccc2Oc2ccccc21)(C(=O)O)[C@H]1C[C@@H]1C(=O)O` [LY341495], the “hypolocomotor effect of mGlu2/3 agonist (LY379268)” value in assay [2] is listed as “achieved the same result”. Besides, the marble-burying behavior result with mice is listed as “significantly reduce marble-burying behavior”. In addition, in the assay on Helpless (H) mice, the “activity in the tail suspension test” value was “active”. Moreover, the “antidepressant effect in helpless mice” value in the assay on Helpless (H) mice (acute administration) is reported as “potent antidepressant effect”. Further, the antidepressant-like effects entry in the assay on mouse and with rat was “Antidepressant-like effects” throughout. For the same compound, in the assay on C57Bl6/J mice, the immobility time entry was “dose-dependently reduced immobility time”. In assay [3], the “effect on LY566332-amplified Aβ-induced neurodegeneration” value is listed as “prevented”.

Consider `CCS(=O)(=O)N(Cc1cccnc1)c1cccc(-c2ccc(C#N)cc2)c1` [LY566332], for which the Aβ-induced neurodegeneration entry in assay [3] is “amplified Aβ-induced neurodegeneration”.

Regarding `N[C@]1(C(=O)O)[C@H]2[C@@H](C[C@H]1OCc1ccc(Cl)c(Cl)c1)[C@]2(F)C(=O)O` [MGS0039], in assay [4], the “immobility in the FST” value was “reversed the increased immobility”. Besides, in the assay on mice, the marble-burying behavior result is given as “reduced marble-burying behavior” and the spontaneous locomotor activity entry is given as “no significant change”. In addition, the “number of escape failures” value in assay [5] is given as “significantly reduced the number of escape failures”. In the assay with mouse, the antidepressant-like effects result is given as “Antidepressant-like effects”. Besides, in [6], the “hyperactivity in the open field test” value is reported as “attenuated the hyperactivity” and the “learning deficit in the passive avoidance test” value is listed as “attenuated the learning deficit”. Moreover, the freezing behavior result in [7] is recorded as “significantly decreased freezing behavior”. Also, in the assay on rat, the antidepressant-like effects result is “Antidepressant-like effects”.

Turning to `Cc1cc(-c2cccc(C3=Nc4cc(C)c(C(F)(F)F)cc4NC(=O)C3)c2)cc(C)n1` [RO4491533], in [2], the “hypolocomotor effect of mGlu2/3 agonist (LY379268)” value is on record as “reversed the hypolocomotor effect”. For the same compound, the “activity in the tail suspension test” value with Helpless (H) mice is “active”. Besides, the immobility time result in the assay with C57Bl6/J mice is given as “dose-dependently reduced immobility time”.

Consider `CN1C(=O)CN=C(c2ccccc2)c2cc(Cl)ccc21` [diazepam], for which the freezing behavior entry in [7] is given as “significantly decreased freezing behavior”.

In the case of `CNCCC(Oc1ccc(C(F)(F)F)cc1)c1ccccc1` (stereo not drawn) [fluoxetine], the “antidepressant effect in helpless mice” value in the assay with Helpless (H) mice (chronic (21 days) treatment) was “full antidepressant effect”.
